Results: patent US20070004660A1, “Synergistic Modulation of Flt3 Kinase Using Alkylquinolines and Alkylquinazolines” (priority 2005, published 2007)

What was measured:
[1] = target: T1, isolated kinase domain of the human FLT3 receptor (a.a. 571-993) (Homo sapiens, UniProt P36888); test: FLT3 fluorescence polarization kinase assay; format: biochemical; conditions: 150 uM ATP; uncertainty ±10%
T1 construct: human FLT3 receptor (a.a. 571-993)
T1 sequence (P36888 571-993): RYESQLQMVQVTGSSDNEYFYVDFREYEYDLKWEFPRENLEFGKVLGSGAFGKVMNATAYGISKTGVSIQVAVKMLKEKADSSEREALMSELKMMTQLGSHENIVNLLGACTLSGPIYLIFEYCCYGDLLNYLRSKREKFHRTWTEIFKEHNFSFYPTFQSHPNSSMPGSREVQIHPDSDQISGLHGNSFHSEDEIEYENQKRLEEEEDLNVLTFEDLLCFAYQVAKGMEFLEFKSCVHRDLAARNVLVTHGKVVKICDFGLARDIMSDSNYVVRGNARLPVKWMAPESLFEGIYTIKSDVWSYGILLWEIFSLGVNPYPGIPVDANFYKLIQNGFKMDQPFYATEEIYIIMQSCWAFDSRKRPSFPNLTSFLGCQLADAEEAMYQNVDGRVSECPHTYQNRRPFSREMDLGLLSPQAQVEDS

MV4-11 cells = test: Inhibition of MV4-11 cell proliferation (CellTiterGlo, 72 h); format: cell-based; conditions: Homo sapiens; 72 h growth inhibition; uncertainty ±20%

Compound | IC50 [1] [nM] | IC50 (MV4-11 cells) [nM]
O=C1CCCN1CCCOc1ccc2c(C3CCN(C(=O)Nc4ccc(N5CCOCC5)cc4)CC3)ncnc2c1 [Example 68, 4-{7-[3-(2-Oxo-pyrrolidin-1-yl)-propoxy]-quinazolin-4-yl}-piperidine-1-carboxylic acid (4-morpholin-4-yl-phenyl)-amide] | 37 | 30
CN1CCC(COc2ccc3c(C4CCN(C(=O)Nc5ccc(N6CCOCC6)cc5)CC4)ncnc3c2)CC1 [Example 94, 4-[7-(1-Methyl-piperidin-4-ylmethoxy)-quinazolin-4-yl]-piperidine-1-carboxylic acid (4-morpholin-4-yl-phenyl)-amide] | 1 | 60
CN1CCN(CCCOc2ccc3c(C4CCN(C(=O)Nc5ccc(N6CCOCC6)nc5)CC4)ncnc3c2)CC1 [Example 80, 4-{7-[3-(4-Methyl-piperazin-1-yl)-propoxy]-quinazolin-4-yl}-piperidine-1-carboxylic acid (6-morpholin-4-yl-pyridin-3-yl)-amide] | 4 | 52
COc1cc2ncnc(C3CCN(C(=O)Nc4ccc(OC5CCCC5)nc4)CC3)c2cc1OC [Example 69, 4-(6,7-Dimethoxy-quinazolin-4-yl)-piperidine-1-carboxylic acid (6-cyclopentyloxy-pyridin-3-yl)-amide] | 76 | 59
CN1CCN(CCCOc2ccc3c(C4CCN(C(=O)Nc5ccc(N6CCOCC6)cc5)CC4)ncnc3c2)CC1 [Example 73, 4-{7-[3-(4-Methyl-piperazin-1-yl)-propoxy]-quinazolin-4-yl}-piperidine-1-carboxylic acid (4-morpholin-4-yl-phenyl)-amide] | 3 | 40
COc1cc2ncnc(C3CCN(C(=O)Nc4ccc(C5=CCN(C(=O)OC(C)(C)C)CC5)cc4)CC3)c2cc1OC [Example 61, 4-(4-{[4-(6,7-Dimethoxy-quinazolin-4-yl)-piperidine-1-carbonyl]-amino}-phenyl)-3,6-dihydro-2H-pyridine-1-carboxylic acid tert-butyl ester] | 8500 | 6000
CCN(CC)CC#Cc1ccc2ncnc(C3CCN(C(=O)Nc4ccc(OC(C)C)cc4)CC3)c2c1 [Example 13, 4-[6-(3-Diethylamino-prop-1-ynyl)-quinazolin-4-yl]-piperidine-1-carboxylic acid (4-isopropoxy-phenyl)-amide] | 72 | 59
COc1cc2ncnc(C3CCN(CC(=O)Nc4ccc(C(C)C)cc4)CC3)c2cc1OC [Example 9, 2-[4-(6,7-Dimethoxy-quinazolin-4-yl)-piperidin-1-yl]-N-(4-isopropyl-phenyl)-acetamide] | 13 | 29
CS(=O)(=O)OCCCOc1ccc2c(C3CCN(C(=O)Nc4ccc(N5CCOCC5)cc4)CC3)ncnc2c1 [Example 122, Methanesulfonic acid 3-{4-[1-(4-morpholin-4-yl-phenylcarbamoyl)-piperidin-4-yl]-quinazolin-7-yloxy}-propyl ester] | 23 | 136
COc1cc2ncnc(C3CCN(C(=O)Nc4ccc(C5CCN(C(=O)OC(C)(C)C)CC5)cc4)CC3)c2cc1OC [Example 63, 4-(4-{[4-(6,7-Dimethoxy-quinazolin-4-yl)-piperidine-1-carbonyl]-amino}-phenyl)-piperidine-1-carboxylic acid tert-butyl ester] | 2000 | 4100
CN1CCC(COc2ccc3c(C4CCN(C(=O)Nc5ccc(N6CCCC6)cc5)CC4)ncnc3c2)CC1 [Example 109, 4-[7-(1-Methyl-piperidin-4-ylmethoxy)-quinazolin-4-yl]-piperidine-1-carboxylic acid (4-pyrrolidin-1-yl-phenyl)-amide] | 35 | 18
CS(=O)(=O)NCCCOc1ccc2c(C3CCN(C(=O)Nc4ccc(OC5CCCC5)nc4)CC3)ncnc2c1 [Example 88, 4-[7-(3-Methanesulfonylamino-propoxy)-quinazolin-4-yl]-piperidine-1-carboxylic acid (6-cyclopentyloxy-pyridin-3-yl)-amide] | 2 | 37
O=C(Nc1ccc(N2CCOCC2)cc1)N1CCC(c2ncnc3cc(OCCCN4CCN(CCO)CC4)ccc23)CC1 [Example 116, 4-(7-{3-[4-(2-Hydroxy-ethyl)-piperazin-1-yl]-propoxy}-quinazolin-4-yl)-piperidine-1-carboxylic acid (4-morpholin-4-yl-phenyl)-amide] | 14 | 139
CC(C)Oc1ccc(NC(=O)N2CCC(c3ncnc4cc(OCC5CCN(C)CC5)ccc34)CC2)cc1 [Example 93, 4-[7-(1-Methyl-piperidin-4-ylmethoxy)-quinazolin-4-yl]-piperidine-1-carboxylic acid (4-isopropoxy-phenyl)-amide] | 0.2 | 9
COc1cc2ncnc(C3CCN(C(=O)Nc4ccc(Oc5ccccc5)cc4)CC3)c2cc1OC [Example 47, 4-(6,7-Dimethoxy-quinazolin-4-yl)-piperidine-1-carboxylic acid (4-phenoxy-phenyl)-amide] | 35 | 122
